US7166298B2, “Genetic immunization with cationic lipids” (Invitrogen Corporation, priority 1993, dated 2007)

How the values were obtained:
cell lines [1] = settings: transfection of certain cell lines, compared with DOTMA; cited from earlier work
cell lines [2] = settings: certain cell lines, compared with DOTMA; cited from earlier work
[3] = tested on: anti-CAT immune response in mice; assay: ELISA and Western blot after IP immunization with CAT plasmids with different promoters (Example 3); type: in vivo; settings: compared with LIPOFECTACE
Protocol: A CAT enzyme-linked immunoassay (ELISA) was used to determine the presence of CAT antibodies in mouse sera samples. Microwell titer plates were prepared by incubating each well of the plate with 1 microgram/ml of CAT in 0.1 M sodium carbonate buffer, pH 9.5. The plates were incubated for 18 hours at 4ΕC. The wells were blocked with 0.2% ovalbumin dissolved in phosphate-buffered saline (PBS) with 0.1% Tween-20 (dilution buffer). Samples were diluted in the dilution buffer, and 200 microliters were added to a well on the plate. The plate was sealed, and then incubated for 60 minutes at 37 degrees C. Following a wash, the plates were incubated with 0.1 micrograms/ml goat anti-mouse IgG—horseradish peroxidase (HRP) conjugate. The plate was sealed and then incubated for 30 minutes at 37 degrees C. Following a second wash, the plates were developed with 3,3′,5,5′-tetramethylbenzidine substrate at room temperature. The reaction was stopped by adding 2N sulfuric acid.
The results were analyzed using Western Blot analysis. Nitrocellulose sheets were prepared by applying purified CAT protein to the nitrocellulose (0.1 micrograms CAT protein/cm nitrocellulose). Sera samples were diluted into dilution buffer and 2 ml were added to each nitrocellulose strip. The strips were incubated for 90 minutes with rocking at room temperature. […]

Compound | toxicity (cell lines [1]) | transfection efficiency (cell lines [2]) | consistency in generating an immune response (ELISA) [3]
CCCCCCCCCCCCCCCC(=O)OCC(COP(=O)(O)OCCNC(=O)C(CCCNCCCN)NCCCN)OC(=O)CCCCCCCCCCCCCCC (stereo not shown) [DPPES, dipalmitoylphosphatidylethanolamine 5-carboxyspermylamide] | less toxic than DOTMA | more efficient | –
CC(C)CCC[C@@H](C)[C@H]1CC[C@H]2[C@@H]3CC=C4C[C@@H](OC(=O)NCCN(C)C)CC[C@]4(C)[C@H]3CC[C@]12C [DC-Chol] | lower toxicity | more efficient transfection | –
CCCCCCCCCCCCCCCCCCN(CCCCCCCCCCCCCCCCCC)C(=O)CNC(=O)C(CCCNCCCN)NCCCN (stereo not shown) [DOGS, 5-carboxylspermylglycine dioctadecylamide] | less toxic than DOTMA | more efficient | –
CCCCCCCCC=CCCCCCCCCOCC(C[N+](C)(C)CCBr)OCCCCCCCCC=CCCCCCCCC.[Br-] (stereo not shown) [bromo lipid, 1-propanaminium, N-[2(2-bromo)ethyl]-N,N-dimethyl-2,3-bis(9-octadecenyloxy)-bromide] | – | – | more consistent results
